Assay results published in patent US8124641B2, “Aminotetrahydroindazoloacetic acids” (Hoffmann-La Roche Inc., priority 2008, dated 2012).

Target: T1, human CRTH2 (Homo sapiens, UniProt Q9Y5Y4)
T1 construct: expressed in transfected cells
T1 sequence (Q9Y5Y4 1-395): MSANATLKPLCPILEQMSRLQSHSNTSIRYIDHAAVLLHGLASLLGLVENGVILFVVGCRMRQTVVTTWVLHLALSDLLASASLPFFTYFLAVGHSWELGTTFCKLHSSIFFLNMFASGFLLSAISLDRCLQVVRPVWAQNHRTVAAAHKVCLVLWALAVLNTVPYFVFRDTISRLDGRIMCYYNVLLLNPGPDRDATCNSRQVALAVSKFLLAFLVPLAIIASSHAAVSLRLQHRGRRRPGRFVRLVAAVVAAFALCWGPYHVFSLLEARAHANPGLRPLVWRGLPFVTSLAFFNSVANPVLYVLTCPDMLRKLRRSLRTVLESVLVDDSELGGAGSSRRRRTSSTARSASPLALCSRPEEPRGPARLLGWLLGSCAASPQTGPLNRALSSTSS
Assay: Human CRTH2 Receptor Binding Assay (whole cell, [3H]ramatroban competition)
Conditions: CHO-K1 cells stably expressing human CRTH2 and G-alpha16; 20 nM [3H]ramatroban; 1 hour, room temperature
Excerpt: A whole cell receptor binding assay using [^3H]ramatroban as the competing radioactive ligand was employed to evaluate the compound binding activity to human CRTH2. The radioactive ligand [^3H]ramatroban was synthesized according to Sugimoto et. al. (Eur. J. Pharmacol. 524, 30-37, 2005) to a specific activity of 42 Ci/mmol.
A cell line stably expressing human CRTH2 was established by transfecting CHO-K1 cells with two mammalian expression vectors that harbored human CRTH2 and G-alpha16 cDNAs, respectively, using FuGene® 6 transfection reagent (from Roche). Stable clones expressing CRTH2 were selected by staining each clone with BM16 (BD Pharmingen™ from BD Biosciences, a division of Becton, Dickinson and Company), which is a rat monoclonal antibody to human CRTH2. The cells were maintained as monolayer cultures in Ham's F-12 medium containing 10% fetal bovine serum, 100 units/mL penicillin, 100 μg/mL streptomycin, 2 mM glutamine, 0.5 mg/mL G418 (geneticin) for CRTH2, and 0.2 mg/mL hygromycin-B (for G-alpha 16). For whole cell receptor binding assay, the monolayer cells were rinsed once with PBS (phosphate buffered saline), dissociated using ethylenediaminetetraacetate (Versene™ EDTA from Lonza Inc.), and suspended in PBS containing 10 mM MgCl2 and 0.06% BSA (bovine serum albumin) at 1.5×10^6 cells/mL.
The binding reactions (0.2 mL) were performed in 96-well plates at room temperature in PBS containing 1.5×10^5 cells, 10 mM MgCl2, 0.06% BSA, 20 nM [^3H]ramatroban, and test compound at various concentrations. After 1 hour of binding reactions, the cells were harvested on GF™/B filter microplates (microtiter plates with embedded glass fiber from PerkinElmer, Inc.) and washed 5 times with PBS using a Filtermate™ Harvester (a cell harvester that harvests and washes cells from microplates from PerkinElmer, Inc.). The radioactivities bound to the cells were determined using a microplate scintillation counter (TopCount® NXT, from PerkinElmer, Inc.) after adding 50 μL of Microscint™ 20 scintillation fluid (from PerkinElmer, Inc.) to each well of the filter plates. The radioactivity from non-specific binding was determined by replacing compound with 10 μM of 15(R)-15-methyl PGD2 (from Cayman Chemical Company) in the reaction mixtures. The radioactivity bound to the cells in the absence of compound (total binding) was determined by replacing compound with 0.25% of DMSO (dimethyl sulfoxide) in the reaction mixture. Specific binding data were obtained by subtracting the radioactivity of non-specific binding from each binding data.
The IC50 value is defined as the concentration of the tested compound that is required for 50% inhibition of total specific binding. In order to calculate the IC50 value, the percent inhibition data were determined for 7 concentrations for each compound. The percent inhibition for a compound at each concentration was calculated according to the following formula, [1−(specific binding in the presence of compound)/(total specific binding)]×100. The IC50 value was then obtained by fitting the percent inhibition data to a sigmoidal dose-response (4 parameter logistic) model in the XLfit® software Excel add-in program [from ID Business Solutions Ltd., model 205, where F(x)=(A+(B−A)/(1+((C/x)^D)))].

SMILES | IC50 [nM]
COc1ccc(S(=O)(=O)NC2CCCc3c2cnn3CC(=O)O)cc1C(F)(F)F (stereo not shown) [Example 1-15a, [4-(4-Methoxy-3-trifluoromethyl-benzenesulfonylamino)-4,5,6,7-tetrahydro-indazol-1-yl]-acetic acid] | 262
Cc1cc(S(=O)(=O)NC2CCCc3c2cnn3CC(=O)O)ccc1Br (stereo not shown) [Example 1-9a, [4-(4-Bromo-3-methyl-benzenesulfonylamino)-4,5,6,7-tetrahydro-indazol-1-yl]-acetic acid] | 277
CN([C@@H]1CCCc2c1cnn2CCC(=O)O)S(=O)(=O)c1cc(C(F)(F)F)cc(C(F)(F)F)c1 [Example 2-8a, 3-{(R)-4-[(3,5-Bis-trifluoromethyl-benzenesulfonyl)-methyl-amino]-4,5,6,7-tetrahydro-indazol-1-yl}-propionic acid] | 43.4
CN([C@@H]1CCCc2c1cnn2CC(=O)O)S(=O)(=O)c1cnc(OC2CCOCC2)c(Br)c1 [Example 4-4a, ((R)-4-{[5-Bromo-6-(tetrahydro-pyran-4-yloxy)-pyridine-3-sulfonyl]-methyl-amino}-4,5,6,7-tetrahydro-indazol-1-yl)-acetic acid] | 53.9
CN([C@@H]1CCCc2c1cnn2CC(=O)O)S(=O)(=O)c1cc(C(C)(C)C)cc(C(C)(C)C)c1 [Example 2-7a, {(R)-4-[(3,5-Di-tert-butyl-benzenesulfonyl)-methyl-amino]-4,5,6,7-tetrahydro-indazol-1-yl}-acetic acid] | 166
O=C(O)Cn1ncc2c1CCCC2NS(=O)(=O)c1ccc(Br)c(C(F)(F)F)c1 (stereo not shown) [Example 1-10a, [4-(4-Bromo-3-trifluoromethyl-benzenesulfonylamino)-4,5,6,7-tetrahydro-indazol-1-yl]-acetic acid] | 119
O=C(O)Cn1ncc2c1CCCC2NS(=O)(=O)c1cc(C(F)(F)F)ccc1C(F)(F)F (stereo not shown) [Example 1-13a, [4-(2,5-Bis-trifluoromethyl-benzenesulfonylamino)-4,5,6,7-tetrahydro-indazol-1-yl]-acetic acid] | 205
CN([C@@H]1CCCc2c1cnn2CC(=O)O)S(=O)(=O)c1ccc(Br)cc1F [Example 2-4a, {(R)-4-[(4-Bromo-2-fluoro-benzenesulfonyl)-methyl-amino]-4,5,6,7-tetrahydro-indazol-1-yl}-acetic acid] | 253
CN([C@@H]1CCCc2c1cnn2CC(=O)O)S(=O)(=O)c1cc(Br)cc(Br)c1 [Example 2-6a, {(R)-4-[(3,5-Dibromobenzenesulfonyl)-methyl-amino]-4,5,6,7-tetrahydro-indazol-1-yl}-acetic acid] | 50.2
CN([C@@H]1CCCc2c1cnn2CC(=O)O)S(=O)(=O)c1ccc(C(F)(F)F)cc1Cl [Example 2-3a, {(R)-4-[(2-Chloro-4-trifluoromethyl-benzenesulfonyl)-methyl-amino]-4,5,6,7-tetrahydro-indazol-1-yl}-acetic acid] | 78.6
CC(=O)c1cc(C(F)(F)F)cc(S(=O)(=O)N(C)[C@@H]2CCCc3c2cnn3CC(=O)O)c1 [Example 19-1a, {(R)-4-[(3-Acetyl-5-trifluoromethyl-benzenesulfonyl)-methyl-amino]-4,5,6,7-tetrahydro-indazol-1-yl}-acetic acid] | 7
CN([C@@H]1CCCc2c1cnn2CC(=O)O)S(=O)(=O)c1cc(C2CCCC2)cc(C(F)(F)F)c1 [Example 18-1a, {(R)-4-[(3-Cyclopentyl-5-trifluoromethyl-benzenesulfonyl)-methyl-amino]-4,5,6,7-tetrahydro-indazol-1-yl}-acetic acid] | 28.6
CN([C@@H]1CCCc2c1cnn2CC(=O)O)S(=O)(=O)c1cc(C(F)(F)F)cc([Si](C)(C)C)c1 [Example 17-1a, {(R)-4-[Methyl-(3-trifluoromethyl-5-trimethylsilanyl-benzenesulfonyl)-amino]-4,5,6,7-tetrahydro-indazol-1-yl}-acetic acid] | 55.6
O=C(O)Cn1ncc2c1CCCC2NS(=O)(=O)c1cc(Br)cc(C(F)(F)F)c1 (stereo not shown) [Example 1-7a, [4-(3-Bromo-5-trifluoromethyl-benzenesulfonylamino)-4,5,6,7-tetrahydro-indazol-1-yl]-acetic acid] | 35.7
CN([C@@H]1CCCc2c1cnn2C(C)(C)C(=O)O)S(=O)(=O)c1cc(C(F)(F)F)cc(C(F)(F)F)c1 [Example 21-1a, 2-{(R)-4-[(3,5-Bis-trifluoromethyl-benzenesulfonyl)-methyl-amino]-4,5,6,7-tetrahydro-indazol-1-yl}-2-methyl-propionic acid] | 278
CN([C@@H]1CCCc2c1cnn2CC(=O)O)S(=O)(=O)c1ccc(OC2CCCC2)c(Cl)c1 [Example 4-1a, {(R)-4-[(3-Chloro-4-cyclopentyloxy-benzenesulfonyl)-methyl-amino]-1-4,5,6,7-tetrahydro-indazol-1-yl}-acetic acid] | 99.2
CN([C@@H]1CCCc2c1cnn2CC(=O)O)S(=O)(=O)c1cc(C(F)(F)F)cc(C(F)(F)F)c1 [Example 2-1a, {(R)-4-[(3,5-Bis-trifluoromethyl-benzenesulfonyl)-methyl-amino]-4,5,6,7-tetrahydro-indazol-1-yl}-acetic acid] | 12.1
O=C(O)Cn1ncc2c1CCCC2NS(=O)(=O)c1cnc(OC2CCCC2)c(Br)c1 (stereo not shown) [Example 3-3a, [4-(5-Bromo-6-cyclopentyloxy-pyridine-3-sulfonylamino)-4,5,6,7-tetrahydro-indazol-1-yl]-acetic acid] | 10.3
CN([C@@H]1CCCc2c1cnn2CC(=O)O)S(=O)(=O)c1cc(C(F)(F)F)cc(S(C)(=O)=O)c1 [Example 6-1a, {(R)-4-[(3-Methanesulfonyl-5-trifluoromethyl-benzenesulfonyl)-methyl-amino]-4,5,6,7-tetrahydro-indazol-1-yl}-acetic acid] | 2.5
CS(=O)(=O)c1cccc(S(=O)(=O)NC2CCCc3c2cnn3CC(=O)O)c1 (stereo not shown) [Example 1-14a, [4-(3-Methanesulfonyl-benzenesulfonylamino)-4,5,6,7-tetrahydro-indazol-1-yl]-acetic acid] | 43.2
O=C(O)Cn1ncc2c1CCCC2NS(=O)(=O)c1ccc(Br)c(F)c1 (stereo not shown) [Example 1-8a, [4-(4-Bromo-3-fluoro-benzenesulfonylamino)-4,5,6,7-tetrahydro-indazol-1-yl]-acetic acid] | 431
CC(C)Oc1cc(C(F)(F)F)cc(S(=O)(=O)NC2CCCc3c2cnn3CC(=O)O)c1 (stereo not shown) [Example 3-4a, [4-(3-Isopropoxy-5-trifluoromethyl-benzenesulfonylamino)-4,5,6,7-tetrahydro-indazol-1-yl]-acetic acid] | 194
CC(C)N(C)c1cc(C(F)(F)F)cc(S(=O)(=O)N(C)[C@@H]2CCCc3c2cnn3CC(=O)O)c1 [Example 24-2a, ((R)-4-{[3-(Isopropyl-methyl-amino)-5-trifluoromethyl-benzenesulfonyl]-methyl-amino}-4,5,6,7-tetrahydro-indazol-1-yl)-acetic acid] | 45.7
CCS(=O)(=O)c1cc(C(F)(F)F)cc(S(=O)(=O)N[C@@H]2CCCc3c2cnn3CC(=O)O)c1 [Example 7-1a, [(R)-4-(3-Ethanesulfonyl-5-trifluoromethyl-benzenesulfonylamino)-4,5,6,7-tetrahydro-indazol-1-yl]-acetic acid] | 2.6
CN([C@@H]1CCCc2c1cnn2CC(=O)O)S(=O)(=O)c1cc(SC2CCCC2)cc(C(F)(F)F)c1 [Example 9-1a, {(R)-4-[(3-Cyclopentylsulfanyl-5-trifluoromethyl-benzenesulfonyl)-methyl-amino]-4,5,6,7-tetrahydro-indazol-1-yl}-acetic acid] | 12.6
